The target in this test is phosphoinositide-specific phospholipase C (PI-PLC) (Bacillus cereus, UniProt P14262). Description: PI-PLC-induced liposome (LUV) aggregation assay, turbidity at […] nm, dose-response. Type of test: biochemical.
Chain of phosphoinositide-specific phospholipase C (PI-PLC) (P14262 32-329 limits assumed): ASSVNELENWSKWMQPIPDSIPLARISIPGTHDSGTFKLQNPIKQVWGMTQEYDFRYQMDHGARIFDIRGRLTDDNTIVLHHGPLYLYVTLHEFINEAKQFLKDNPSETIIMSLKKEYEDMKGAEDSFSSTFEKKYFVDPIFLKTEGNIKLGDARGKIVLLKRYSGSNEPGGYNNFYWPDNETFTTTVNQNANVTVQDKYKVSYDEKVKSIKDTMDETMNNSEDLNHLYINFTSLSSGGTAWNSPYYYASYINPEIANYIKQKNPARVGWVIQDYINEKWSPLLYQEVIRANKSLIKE

Compound `N#C[C@@H]1CCCN1C(=O)CNC12CC3CC(CC(O)(C3)C1)C2` [LAF-237, 1-[[(3-hydroxy-1-adamantyl)amino]acetyl]-2-cyano-(S)-pyrrolidine] yielded an IC50 of 100 µM.

Broadly, the IC50 is the concentration at which inhibition is half-maximal.

These data come from article PMC4309170, “The dipeptidyl peptidase IV inhibitors vildagliptin and K-579 inhibit a phospholipase C: a case of promiscuous scaffolds in proteins” (F1000Research, 2015).
